Measured values: patent US20160340656A1, “PEPTIDES DERIVED FROM GSE 24.2 FOR TREATING DISEASES CAUSED BY OXIDATIVE STRESS AND DAMAGE TO DNA” (CONSEJO SUPERIOR DE INVESTIGACIONES CIENTÍFICAS (CSIC), priority 2013, published 2016)

Key:
[1] = system: telomerase activity in VA13 cells; test: Telomerase activity (TRAP assay) in VA13 cells after peptide transfection; format: cell-based; conditions: 8 μg peptide
Method: FIG. 10. Determination of telomerase activity in VA13 cells after transfection of the peptides GSE4 and GSE5. In order to determine the effect of expression of peptides GSE4 and GSE5, VA13 cells were transfected through lipofection and 24 hours later a TRAP assay was performed for telomerase activity.
The other way of quantifying the activity of peptide GSE4 was to evaluate its ability to increase telomerase activity in VA13 cells. To do this, these cells were transfected with 8 μg of the two peptides GSE4 and GSE5. […], the cells were processed to test the telomerase activity by the TRAP method.

[2] = system: AT719-P cells; test: Oxidative stress (ROS by DHE, flow cytometry) in AT719-P cells expressing GSE24.2 or GSE4; format: cell-based, human; conditions: three weeks after infection
Method: FIG. 11. Determination of oxidative stress levels in ataxia telangiectasia cells after expressing the peptides GSE24.2 and GSE4. AT719-P cells were infected with a lentiviral vector expressing GSE24.2, GSE4 or a GFP empty vector and three weeks later loaded with the DHE reagent that detects levels of reactive oxygen species (ROS). AT736C cells were used as a control. The relative fluorescence of the four cell lines and the proportion of cells with maximum intensity were determined by flow cytometry at wavelengths of 518 nm absorption and 605 nm emission. The data are shown as relative percentage of cells that emit at this wavelength.
(§1) As the peptide denominated GSE4 was smaller than the peptides with ability to repair telomerase activity, we studied if it had the same activity as peptide GSE24.2 for attenuating oxidative stress, expression of proinflammatory cytokines and repairing the senescence in ataxia telangiectasia cells. […] Finally, given that the increase in expression of the interleukins IL6 and IL8 are associated with a secretory phenotype linked to senescence in ataxia telangiectasia, we evaluated the ability of both peptides GSE24.2 and GSE4 to reduce senescence by evaluating senescence-associated β-galactosidase activity (SA-beta-Gal) (FIG. 13).

[3] = system: IL8; test: Expression of proinflammatory cytokine IL8 in AT719-P cells; format: cell-based, human; conditions: relative to β-actin
Method: FIG. 12. Levels of expression of proinflammatory cytokines in ataxia telangiectasia cells after expressing peptides GSE24.2 and GSE4. AT719-P AT cells were infected with a lentiviral vector expressing GSE24.2, GSE4 or a GFP empty vector and three weeks later the RNA was extracted and after obtaining the corresponding cDNA, the levels of expression of the proinflammatory cytokines IL6 and IL8 were determined. AT736C cells were used as a control. The levels of expression of the gene β-actin were measured as control of expression. The results are expressed as the relative increase in the number of times of expression of each of the genes compared to β-actin, considering the levels of expression of AT736C cells as 1.
as §1

[4] = system: AT2078 AT cells; test: Senescence-associated β-galactosidase activity in AT cells; format: cell-based, human; conditions: 3 days or eight days after infection
Description: FIG. 13. Determination of senescence of AT cells after expressing peptides GSE24.2 and GSE4: AT2078 AT cells were infected with a lentiviral vector expressing GSE24.2, GSE4 or a GFP empty vector and 3 days or eight days later they were fixed to determine the expression of the enzyme β-galactosidase acid associated with senescence (senescence-associated β-galactosidase). Control C-1787 cells were used as the negative control. The percentage of cells expressing β-galactosidase from the total cells per field was determined. 200 cells per cell type were evaluated and the results grouped into cells showing no activity (βgal-, in division) and senescent cells (β-gal+).
as §1

[5] = system: AT3487 cells from patients with ataxia telangiectasia; test: Damage to DNA in AT cells: phosphorylated histone H2AX (Ser139) foci after lentiviral expression of GSE24.2; format: cell-based, human
Method: FIG. 1. Determination of damage to DNA in AT cells: AT3784 AT cells were infected with a lentiviral vector expressing GSE24.2 or a GFP empty vector and were fixed 24 hours later to be processed and hybridised with an antibody against phosphorylated histone H2AX (Ser139). Control C-1787 cells were used as the negative control. Next they were hybridised with a fluorescein-labelled antibody and were stained with DAPI to locate the nuclei.
To perform this test, cell lines from patients with ataxia telangiectasia (AT, from the Coriell repository) with a mutation in the gene ATM and denominated AT3487 were used. Cell line C-1787 was used as the control cell line. The cells were infected with the bicistronic lentiviral vector pCMV-GFP-GSE24.2. After 48 hours of infection the cells were fixed with formaldehyde and then permeabilized by treating them with Triton X-100. The damage to DNA was estimated by studying the signal after hybridisation of the cells with an antibody against histone H2AX Ser139 and subsequent hybridisation with an antibody bound to fluorescein. The number of foci with stain for histone H2AX/nucleus was determined by confocal microscopy in a total of 200 cells and the data represented as a percentage of cells with a specific number of foci.

[6] = 200 cells, lentiviral expression of GSE24.2

GFINLDKPSNP [GSE4]
reactivation of telomerase activity [1]: much higher activity in reactivating telomerase activity | reduction of levels of free radicals [2]: 50% | reduction of levels of expression of IL8 [3]: 90% | senescence: percentage of cells positive for beta-galactosidase activity [4]: reduced the percentage of positive cells for beta-galactosidase activity progressively over time

GFINLDKPSNPSSHEVVAWIRRILRVEKTGHSGTLDPKVTGCLIVCIERATRLVK (GSE24.2; listed as Homo sapiens) [55-amino-acid peptide corresponding to the protein dyskerin; known from WO2007/090911]
reduction of levels of free radicals [2]: ~50% | reduction of levels of expression of IL8 [3]: in the same range | senescence: percentage of cells positive for beta-galactosidase activity [4]: reduced the percentage of positive cells for beta-galactosidase activity progressively over time | correction of overall damage to DNA [5]: 40% | AT cells in which levels of damage to DNA are reduced [5, 6]: 25% | AT cells in which overall damage to DNA is fully corrected [5, 6]: 20%
